Laboratory results: patent US20240076667A1, “APPLICATION OF ANTISENSE OLIGONUCLEOTIDE TARGETING PBX1 PROMOTER REGION G-QUADRUPLEX IN PREPARATION OF MEDICINE FOR TREATING MELANOMA” (JILIN UNIVERSITY, priority 2022, published 2024)
Entries after “also recorded” stand apart in the source; their conditions may differ.

Legend:
PBX1 dG1 = assay: PBX1 dual luciferase reporter assay in HEK293T, A375 and B16-F10 cells; type: cell-based
Method: Dual luciferase reporter assay: for the PBX1 luciferase reporter gene assay, PBX1 luciferase reporter gene plasmid and pRL-TK plasmid are co-transfected into HEK293T, A375 and B16-F10 cells in the 96-well plate by Lipofectamine 2000 (Invitrogen, USA). 48 hours after transfection, cells are collected and analyzed using the Dual-Luciferase® Reporter Assay System (Promega, USA). The firefly activity is normalized to the activity of Renilla luciferase.
(§1) Given that G4s in the promoter and transcript are involved in the regulation of transcription and translation related processes, it is speculated that dG1 in the PBX1 promoter may regulate the transcription of PBX1, and rG1 in 5′UTR of the PBX1 transcript may regulate the transcription of PBX1. In addition, the luciferase reporter assay is first performed. The dG1 promoter sequence (designated as dG1-wt) and mutated dG1 promoter sequence (designated as dG1-mut) of PBX1 are cloned into pGL3 luciferase reporter vector. […] In addition, this embodiment further constructs an enhanced green fluorescent protein (EGFP) reporter gene system, to study the effect of rG1 on translation. The rG1 transcript sequence (designated as rG1-wt) and mutant rG1 transcript sequence (designated as rG1-mut) of PBX1 are fused to 5′UTR of EGFP, and the reporter gene vector is transfected into HEK293T cells. By confocal fluorescence experiments, the EGFP fluorescence intensity of rG1-WT is less than that of rG1-MUT, and PDS or TMPyP4 decreases the fluorescence intensity of rG1-WT in HEK293T cells (FIG. 3B). Finally, this embodiment studies the potential effect of PBX1 G4s on PBX1 expression of A375 and B16-F10 cells.

B16-F10 cells [1] = assay: Cell proliferation assay (CCK-8), B16-F10; type: cell-based, mouse; settings: dose-dependent manner
Method: Cell proliferation assay: cell viability is determined by the cell counting kit-8 (CCK-8) according to the manufacturer's instructions (Abcam, UK). Cells (2000 cells per well) are incubated in the 96-well plate in triplicate and then added to each well at various time points at the final concentration of 10%, and incubation is continued at 37° C. After 60 minutes, the absorbance of the sample is measured at the wavelength of 450 nm. Data is analyzed using GraphPad Prism software.

A375 cells [2] = assay: Cell scratch assay (migration), A375; type: cell-based, human; settings: PDS (2 μM), TMPyP4 (5 μM), 24 h
Method: (§2) Cell scratch assay: the cells are seeded in 12-well plate and grown for 24 hours to 80% confluency. The bare region is created by the tip across the diameter of the dish. After being treated with PDS (2 μM) and TMPyP4 (5 μM) for 24 h, the cells are washed with PBS and photographed under the microscope (Leica, Germany) to evaluate cell migration. Six micrographs are taken for each person.

B16-F10 cells [3] = assay: In vitro cell invasion experiment (Transwell), B16-F10; type: cell-based, mouse; settings: Transwell with Matrigel, 24 hours
Method: In vitro cell invasion experiment: in the Transwell invasion experiment, Matrigel is used as an invasive supraluminal membrane barrier (Corning, USA). The lower transwell chamber is filled with 2.5% serum containing DMEM medium. The cells are suspended at an upper chamber. After incubation for 24 hours, the filter is removed, and cells on the membrane are fixed by using methanol. Cells stained with 0.5% crystal violet infiltrate the surrounding matrix. The dye is washed with water and the cells are examined under the microscope (Leica, Germany). Six micrographs are taken for each person.

PBX1 = PBX1 mRNA and protein levels by qRT-PCR and western blot in A375 cells; type: cell-based, human; settings: for mRNA level of PBX1: qRT-PCR; for protein level of PBX1: western blot, normalized to GAPDH
Method: RNA extraction and quantitative RT-PCR detection: total RNA is extracted from cultured cells by using TRIzol (Invitrogen, USA), then is converted into cDNA by SuperScript III First-Strand Synthesis SuperMix (Invitrogen, USA). qRT-PCR detection is performed by using SYBR Green®Mix (Invitrogen, USA) in ABI 7500 (Invitrogen, USA). A relative expression quantity of RNA is calculated by using a comparative CT method.
Immunoblotting: for protein analysis of a whole-cell lysate, cells are lysed with RIPA (CWBIO, Beijing, China) buffer solution. For tumors, liquid nitrogen is first used to pulverize tissues. Then, the lysate is generated on ice with the RIPA (CWBIO, Beijing, China) buffer solution for 20 minutes, and then centrifuged at 4° C., 13000 rpm for 15 minutes. Protein-containing supernatant is transferred to the fresh microcentrifuge tube, and stored at −20° C. (short-term storage) for subsequent use. The protein is quantified by using the BIO-RAD DC protein assay. The total proteins are electrophoresed on SDS-polyacrylamide gels. Then, the proteins are transferred to polyvinylidene difluoride (PVDF) membrane. After incubation with the primary antibody overnight on the shaker at 4° C., the membrane is washed 6 times (5 minutes each time) with TBS-T (Invitrogen, USA). Then, blots are incubated with horseradish peroxidase (IRP)-conjugated secondary antibodies for 60 minutes at RT on the plate shaker. The membrane is cleaned by TBS-T (6×5 minutes). Detection on immunoreactive bands is performed by using SuperSignalmWest Pico chemiluminescence substrate kit (Thermo Fisher Scientific, USA) and Western blotting detection system (BioRad, USA). GAPDH is used as the loading control for western blotting. The intensity levels of the bands are normalized to GAPDH.

A375 cells [4] = assay: Colony forming assay, A375; type: cell-based, human
Method: (§3) Colony forming assay: for the colony forming assay, A375 and B16-F10 cells are seeded on 6-well plates with the density of 500-1000 cells. After two weeks, staining is performed by using 1% crystal violet at room temperature, rinsing is performed with PBS and tap water, and the number of colonies is counted.

rG1 = assay: Thermal stability of PBX1 rG1 with G4-specific ligands; type: binding
B16-F10 cells [5] = assay: Cell scratch assay (migration), B16-F10; type: cell-based, mouse; settings: PDS (2 μM), TMPyP4 (5 μM), 24 h
Method: as §2

B16-F10 cells [6] = assay: Colony forming assay, B16-F10; type: cell-based, mouse
Method: as §3

PBX1 rG1 = assay: EGFP reporter gene system, confocal fluorescence; type: cell-based; settings: HEK293T cells; 2 μM PDS or 5 μM TMPyP4
Method: Construction of an EGFP reporter vector: the reporter vector (Inovogen Tech. Co., Beijing, China) with pLV-EGFP-N as the backbone gene encodes the rG1 site of the PBX1 5′UTR sequence. By using the Strata gene rapid change site-directed mutagenesis kit, point mutation is performed on the rG1 site.
as §1, with “Finally, this embodiment studies the potential effect of PBX1 G4s on PBX1 expression of A375 and B16-F10 cells.” left out

| SMILES | luciferase activity of dG1-mut transfected cells (PBX1 dG1) | luciferase activity of dG1-wt transfected cells (PBX1 dG1) | cell viability (activity) measured by CCK8 (B16-F10 cells [1]) | migration (A375 cells [2]) | invasion (B16-F10 cells [3]) | mRNA level of PBX1 (PBX1) | protein level of PBX1 (PBX1) | colony formation (A375 cells [4]) | thermal stability of rG1 (rG1) | migration (B16-F10 cells [5]) | colony formation (B16-F10 cells [6]) | EGFP fluorescence intensity of rG1-WT (PBX1 rG1) |
| --- | --- | --- | --- | --- | --- | --- | --- | --- | --- | --- | --- | --- |
| C[n+]1ccc(-c2c3nc(c(-c4cc[n+](C)cc4)c4ccc([nH]4)c(-c4cc[n+](C)cc4)c4ccc([nH]4)c(-c4cc[n+](C)cc4)c4nc2C=C4)C=C3)cc1 [TMPyP4] | does not affect | remarkably inhibits | reduce; also recorded: remarkably reduces | inhibit | inhibit | inhibit; also recorded: remarkably reduces | inhibit; also recorded: remarkably reduces | inhibits | remarkably enhance | inhibit | inhibits | decreases |
| NCCOc1cc(C(=O)Nc2cc(OCCN)c3ccccc3n2)nc(C(=O)Nc2cc(OCCN)c3ccccc3n2)c1 [PDS, Pyridostatin] | does not affect | remarkably inhibits | reduce; also recorded: remarkably reduces | inhibit | inhibit | inhibit; also recorded: remarkably reduces | inhibit; also recorded: remarkably reduces | inhibits | remarkably enhance | inhibit | inhibits | decreases |
